Nine compounds from PubChem BioAssay (NCI) can be followed below.

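In this assay, cells in 96-well plates receive the compound at five concentrations for 48 hours. Endpoints are linearly interpolated between the surrounding concentrations. The concentration for 50% growth inhibition is given as GI50. Definition used: TGI = concentration required for complete inhibition of growth.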

For the first assay, the system named is UO-31 renal. As to the kind of experiment: NCI-60 cell line screen, 48 h.
With `CC1CCCc2c1nn(C(=O)/C=C(\N)c1ccccc1)c2N` (configuration not stated), the GI50 was 3.92 µM and the TGI was over 100 µM.
With `CCCCCCCCCCCCCC(=O)OCC1OC(=O)CC1O` (configuration not stated), the TGI is 81.6 µM.
`Cc1ccc(S(=O)(=O)N/N=C(\c2nc3ccc([N+](=O)[O-])cc3[nH]c2=O)C(O)c2ccccc2Cl)cc1` (configuration not stated) displayed a TGI of over 100 µM.
For the compound `COc1ccc(CC(C)C(C)Cc2ccc(OC)c(OC)c2)cc1OC` (configuration not stated), the GI50 is over 1400 µM and the TGI was over 1400 µM.
As for `Cc1ncc(C(=O)Nc2ccc(CN3CCN(C)CC3)c(C(F)(F)F)c2)cc1C#Cc1cnc(NC2CC2)c2ncccc12`, the GI50 is 0.675 µM and the TGI stood at 1.19 µM.
The compound `Cc1ccc2nc3c(Cl)c(C)c(=O)cc-3sc2c1` displayed a TGI of over 100 µM.
With `O=C/C(=C(/Cl)c1ccc(O)cc1)c1ccccc1`, the TGI was 61.8 µM.
Turning to `CCCCCCCCCCN=C(c1ccc(N(C)C)cc1)c1ccc(N(C)C)cc1`, the GI50 is 2.39 µM and the TGI stood at 33 µM.
For `CCCCCCCCCCCCCCCCCCNC(=O)[C@H]1CSC(c2cccs2)N1` (some centres not stated), in that order: 10.3 µM and over 50 µM.

Another assay has as its system KM12 colon. Nature of the assay: NCI-60 cell line screen, 48 h.
Take `CC1CCCc2c1nn(C(=O)/C=C(\N)c1ccccc1)c2N` (configuration not stated): the GI50 is 5.97 µM and the TGI was over 100 µM.
For the compound `CCCCCCCCCCCCCC(=O)OCC1OC(=O)CC1O` (configuration not stated), the TGI is over 100 µM.
The same measure, in the same setting: then `Cc1ccc(S(=O)(=O)N/N=C(\c2nc3ccc([N+](=O)[O-])cc3[nH]c2=O)C(O)c2ccccc2Cl)cc1` (configuration not stated), with over 100 µM.
On to `COc1ccc(CC(C)C(C)Cc2ccc(OC)c(OC)c2)cc1OC` (configuration not stated), for which the GI50 was over 1400 µM and the TGI was over 1400 µM.
`Cc1ncc(C(=O)Nc2ccc(CN3CCN(C)CC3)c(C(F)(F)F)c2)cc1C#Cc1cnc(NC2CC2)c2ncccc12`: the GI50 was 0.197 µM and the TGI was found to be 0.819 µM.
`Cc1ccc2nc3c(Cl)c(C)c(=O)cc-3sc2c1`: the GI50 is 78 µM and the TGI is over 100 µM.
As for `O=C/C(=C(/Cl)c1ccc(O)cc1)c1ccccc1`, the TGI is over 100 µM.
As to `CCCCCCCCCCN=C(c1ccc(N(C)C)cc1)c1ccc(N(C)C)cc1`, the GI50 was 0.414 µM and the TGI is over 75.8 µM.
`CCCCCCCCCCCCCCCCCCNC(=O)[C@H]1CSC(c2cccs2)N1` (some centres not stated): the GI50 is 0.977 µM and the TGI came to 1.98 µM.

The next assay deals with HL-60(TB) leukemia. Nature of the assay: NCI-60 cell line screen, 48 h.
`CC1CCCc2c1nn(C(=O)/C=C(\N)c1ccccc1)c2N` (configuration not stated): the GI50 is 5.96 µM and the TGI is 44.3 µM.
In turn, `CCCCCCCCCCCCCC(=O)OCC1OC(=O)CC1O` (configuration not stated) displayed a TGI of over 100 µM.
`Cc1ccc(S(=O)(=O)N/N=C(\c2nc3ccc([N+](=O)[O-])cc3[nH]c2=O)C(O)c2ccccc2Cl)cc1` (configuration not stated) gave a TGI of over 100 µM.
As for `COc1ccc(CC(C)C(C)Cc2ccc(OC)c(OC)c2)cc1OC` (configuration not stated), the GI50 is over 1400 µM and the TGI is over 1400 µM.
Consider `Cc1ncc(C(=O)Nc2ccc(CN3CCN(C)CC3)c(C(F)(F)F)c2)cc1C#Cc1cnc(NC2CC2)c2ncccc12`, for which the GI50 is 0.67 µM and the TGI was determined as 1.47 µM.
In the case of `Cc1ccc2nc3c(Cl)c(C)c(=O)cc-3sc2c1`, the TGI was over 100 µM.
Regarding `O=C/C(=C(/Cl)c1ccc(O)cc1)c1ccccc1`, the TGI is over 100 µM.
On to `CCCCCCCCCCN=C(c1ccc(N(C)C)cc1)c1ccc(N(C)C)cc1`, for which the GI50 is 0.954 µM and the TGI was found to be 18.9 µM.
With `CCCCCCCCCCCCCCCCCCNC(=O)[C@H]1CSC(c2cccs2)N1` (some centres not stated), the GI50 was 0.919 µM and the TGI was 2.06 µM.

For a further assay, the system named is UACC-257 melanoma. Nature of the assay: NCI-60 cell line screen, 48 h.
Consider `CC1CCCc2c1nn(C(=O)/C=C(\N)c1ccccc1)c2N` (configuration not stated), for which the GI50 was 25.6 µM and the TGI was over 100 µM.
Regarding `CCCCCCCCCCCCCC(=O)OCC1OC(=O)CC1O` (configuration not stated), the TGI was over 100 µM.
With `Cc1ccc(S(=O)(=O)N/N=C(\c2nc3ccc([N+](=O)[O-])cc3[nH]c2=O)C(O)c2ccccc2Cl)cc1` (configuration not stated), the TGI was over 100 µM.
For the compound `COc1ccc(CC(C)C(C)Cc2ccc(OC)c(OC)c2)cc1OC` (configuration not stated), the GI50 is 80.7 µM and the TGI is over 1400 µM.
`Cc1ncc(C(=O)Nc2ccc(CN3CCN(C)CC3)c(C(F)(F)F)c2)cc1C#Cc1cnc(NC2CC2)c2ncccc12`: the GI50 is 0.719 µM and the TGI stood at 1.59 µM.
On to `Cc1ccc2nc3c(Cl)c(C)c(=O)cc-3sc2c1`, for which the GI50 was 78.4 µM and the TGI was over 100 µM.
In turn, `O=C/C(=C(/Cl)c1ccc(O)cc1)c1ccccc1` showed a TGI of over 56.6 µM.
Consider `CCCCCCCCCCN=C(c1ccc(N(C)C)cc1)c1ccc(N(C)C)cc1`, for which the GI50 was 16.5 µM and the TGI is 66.2 µM.
The matching figures for `CCCCCCCCCCCCCCCCCCNC(=O)[C@H]1CSC(c2cccs2)N1` (some centres not stated): 1.25 µM and 3.12 µM.

The test system of a further assay is HOP-92 NSCLC. As to the kind of experiment: NCI-60 cell line screen, 48 h.
On to `CC1CCCc2c1nn(C(=O)/C=C(\N)c1ccccc1)c2N` (configuration not stated), for which the GI50 was 10.3 µM and the TGI was 95.7 µM.
Regarding `CCCCCCCCCCCCCC(=O)OCC1OC(=O)CC1O` (configuration not stated), the TGI was determined as 40.2 µM.
Same read-out and setting: then `Cc1ccc(S(=O)(=O)N/N=C(\c2nc3ccc([N+](=O)[O-])cc3[nH]c2=O)C(O)c2ccccc2Cl)cc1` (configuration not stated), with over 100 µM.
Turning to `COc1ccc(CC(C)C(C)Cc2ccc(OC)c(OC)c2)cc1OC` (configuration not stated), the GI50 is 235 µM and the TGI is over 1400 µM.
The matching figures for `Cc1ncc(C(=O)Nc2ccc(CN3CCN(C)CC3)c(C(F)(F)F)c2)cc1C#Cc1cnc(NC2CC2)c2ncccc12`: 0.682 µM and 2.08 µM.
Compound `Cc1ccc2nc3c(Cl)c(C)c(=O)cc-3sc2c1` displayed a TGI of over 100 µM.
With `O=C/C(=C(/Cl)c1ccc(O)cc1)c1ccccc1`, the TGI came to 50.7 µM.
For `CCCCCCCCCCN=C(c1ccc(N(C)C)cc1)c1ccc(N(C)C)cc1`, the GI50 was 1.92 µM and the TGI turned out to be 26.5 µM.
For `CCCCCCCCCCCCCCCCCCNC(=O)[C@H]1CSC(c2cccs2)N1` (some centres not stated), in that order: 2.38 µM and 14.2 µM.
